A word on the LD50: it is the dose expected to kill half of the subjects tested.

The values that follow come from ChEMBL document CHEMBL1127219, “A convergent synthesis of 4-(2-benzothiazoyl)piperidines with antihistamic activity” (Bioorg Med Chem Lett, 1993).

For one data set, the species on record is Cavia porcellus. As to the kind of experiment: Concentration required to antagonize the histamine induced contractile response of guinea pig ileum. The format is functional. To be noted: read-out: pA2 (converted).
Data set [1] in a line: Dose causing 50% death of the population when tested in mice. The format is ADME. To be noted: mouse, in vivo.

Molecules are shown by their SMILES.

Take `COc1ccc(CCN2CCC(C(O)c3nc4ccccc4s3)CC2)cc1` (centres undefined): the Kb in the data set listed under Cavia porcellus was 6.31 nM.
`COC(=O)c1ccc(OCCCN2CCC(C(=O)c3nc4ccccc4s3)CC2)cc1`: in the data set listed under Cavia porcellus, the Kb was 2.51 nM. Further, in data set [1], the LD50 is > 400 mg/kg.
For `COC(=O)CN1CCC(C(=O)c2nc3ccccc3s2)CC1`, in that order: ~100 nM and > 400 mg/kg.
For `COc1ccc(CCN2CCC(C(=O)c3nc4ccccc4s3)CC2)cc1`, in that order: 0.501 nM and > 400 mg/kg.
The corresponding values for `COc1ccc(OCCCN2CCC(C(=O)c3nc4ccccc4s3)CC2)cc1` are 5.01 nM and > 400 mg/kg.
Consider `COc1cccc(CN2CCC(C(=O)c3nc4ccccc4s3)CC2)c1`, for which the Kb in the data set filed under Cavia porcellus is 50.1 nM. In data set [1], this molecule came in with an LD50 of 400 mg/kg.
The corresponding values for `O=C(c1nc2ccccc2s1)C1CCN(CCc2ccccc2)CC1` are 15.8 nM and > 400 mg/kg.
Consider `C=C(c1nc2ccccc2s1)C1CCN(CCc2ccc(OC)cc2)CC1`, for which, in the data set filed under Cavia porcellus, the Kb was 1.58 nM.
On the same count and under the same terms, for `COc1ccc(CCN2CCC(C(O)(c3ccccc3)c3nc4ccccc4s3)CC2)cc1` (centres undefined) the value was 39.8 nM.
As for `O=C(c1nc2ccccc2s1)C1CCN(CCc2ccc(F)cc2)CC1`, in the data set filed under Cavia porcellus, the Kb was 3.98 nM. The LD50 in data set [1] was > 400 mg/kg.
The corresponding values for `CC(=O)Nc1ccc(OCCCN2CCC(C(=O)c3nc4ccccc4s3)CC2)cc1` are 7.94 nM and > 400 mg/kg.
